Our source for the IC50 values is patent publication US20230031406A1, “COMPOUNDS AND COMPOSITIONS FOR TREATING CONDITIONS ASSOCIATED WITH NLRP ACTIVITY” (Novartis AG, priority 2018, published 2023).

The structures appear in SMILES notation. Like-named read-outs stand apart in the source and are kept apart here. Where only a bound is given, the exact number is not on record here.

By IC50 is commonly meant the point on the concentration scale where inhibition reaches its midpoint.

In this assay the test system is PMA-differentiated THP-1 cells. The experiment in a line: hTHP-1 assay containing 10% fetal bovine serum (IL-1β production, Tables B5 and B6). The assay is classed as cell-based, human. The protocol:
The following protocol is suitable for testing the activity of the compounds disclosed herein. Procedure 1: IL-1β Production in PMA-Differentiated THP-1 Cells Stimulated with Gramicidin.
THP-1 cells were purchased from the American Type Culture Collection and sub-cultured according to instructions from the supplier. Cells were cultured in complete RPMI 1640 (containing 10% heat inactivated FBS, penicillin (100 units/ml) and streptomycin (100 μg/ml)), and maintained in log phase prior to experimental setup. Prior to the experiment, compounds were dissolved in dimethyl sulfoxide (DMSO) to generate a 30 mM stock. The compound stock was first pre-diluted in DMSO to 3, 0.34, 0.042 and 0.0083 mM intermediate concentrations and subsequently spotted using Echo550 liquid handler into an empty 384-well assay plate to achieve desired final concentration (e.g. 100, 33, 11, 3.7, 1.2, 0.41, 0.14, 0.046, 0.015, 0.0051, 0.0017 μM). DMSO was backfilled in the plate to achieve a final DMSO assay concentration of 0.37%. The plate was then sealed and stored at room temperature until required.
THP-1 cells were treated with PMA (Phorbol 12-myristate 13-acetate) (20 ng/ml) for 16-18 hours. On the day of the experiment the media was removed and adherent cells were detached with trypsin for 5 minutes. […] The cells were plated in the 384-well assay plate containing the spotted compounds at a density of 50,000 cells/well (final assay volume 50 μl). Cells were incubated with compounds for 1 hour and then stimulated with gramicidin (5 μM) (Enzo) for 2 hours. Plates were then centrifuged at 340 g for 5 min. Cell free supernatant (40 μL) was collected using a 96—CHannel PlateMaster (Gilson) and the production of IL-1β was evaluated by HTRF (cisbio). The plates were incubated for 18 h at 4° C. and read using the preset HTRF program (donor emission at 620 nm, acceptor emission at 668 nm) of the SpectraMax i3x spectrophotometer (Molecular Devices, software SoftMax 6). A vehicle only control and a dose titration of CRID3 (100-0.0017 μM) were run concurrently with each experiment.
Procedure 2: IL-1β Production in PMA-Differentiated THP-1 Cells Stimulated with Gramicidin.
THP-1 cells were purchased from the American Type Culture Collection and sub-cultured according to instructions from the supplier. Prior to experiments, cells were cultured in complete RPMI 1640 (containing 10% heat inactivated FBS, penicillin (100 units/ml) and streptomycin (100 μg/ml)), and maintained in log phase prior to experimental setup. Prior to the experiment THP-1 were treated with PMA (Phorbol 12-myristate 13-acetate) (20 ng/ml) for 16-18 hours. Compounds were dissolved in dimethyl sulfoxide (DMSO) to generate a 30mM stock. On the day of the experiment the media was removed and adherent cells were detached with trypsin for 5 minutes. […] The cells were plated in a 384-well plate at a density of 50,000 cells/well (final assay volume […]). Compounds were first dissolved in assay medium to obtain a 5× top concentration of 500 μM. 10 step dilutions (1:3) were then undertaken in assay medium containing 1.67% DMSO. 5× compound solutions were added to the culture medium to achieve desired final concentration (e.g. 100, 33, 11, 3.7, 1.2, 0.41, 0.14, 0.046, 0.015, 0.0051, 0.0017 μM). Final DMSO concentration was at 0.37%. Cells were incubated with compounds for 1 hour and then stimulated with gramicidin (5 μM) (Enzo) for 2 hours. Plates were then centrifuged at 340 g for 5 min. Cell free supernatant (40 μL) was collected using a 96—CHannel PlateMaster (Gilson) and the production of IL-1β was evaluated by HTRF (cisbio). A vehicle only control and a dose titration of CRID3 (100-0.0017 μM) were run concurrently with each experiment.
Tables B1, B2, B3, and B4 show the biological activity of compounds in hTHP-1 assay containing 2% fetal bovine serum. […] Key: <0.008 μM=“++++++”; ≥0.008 and <0.04 μM=“+++++”; >0.04 and <0.2 μM=“++++”; ≥0.2 and <1 μM=“+++”; ≥1 and <5 μM=“++”; ≥5 and <30 μM=“+”. […]

Setting [1] is: Homo sapiens, THP-1, read-out: hTHP-1 IC50 in 10% FBS, hTHP-1 assay containing 10% fetal bovine serum, Table B5.
Where [2] appears, read: Homo sapiens, THP-1, read-out: hTHP-1 IC50 in 10% FBS, hTHP-1 assay containing 10% fetal bovine serum, Table B6.

`CC(C)(O)c1csc(S(N)(=O)=NC(=O)Nc2c3c(nc(C4CC4)c2C2CC2)CCC3)c1F` (single isomer, unassigned) [Compound 1106b, (S) or (R)-N′-((2,3-dicyclopropyl-6,7-dihydro-5H-cyclopenta[b]pyridin-4-yl)carbamoyl)-3-fluoro-4-(2-hydroxypropan-2-yl)thiophene-2-sulfonimidamide]: the IC50 (read-out: hTHP-1 IC50 in 10% FBS, hTHP-1 assay containing 10% fetal bovine serum, Table B5, listed as 831) is 1000 to 5000 nM.

For `Cc1c(C(F)(F)F)nc2c(c1NC(=O)N=S(N)(=O)c1nn(C3CC3)cc1F)CCC2` (stereo not shown) [Compound 1114, 1-Cyclopropyl-4-fluoro-N′-((3-methyl-2-(trifluoromethyl)-6,7-dihydro-5H-cyclopenta [b]pyridin-4-yl)carbamoyl)-1H-pyrazole-3-sulfonimidamide], the IC50 under setting [1] was 40 to 200 nM.

With `NS(=O)(=NC(=O)Nc1c2c(nc3c1CCC31CC1)CCC2)c1nn(C2CC2)cc1F` (single isomer, unassigned) [Example 865, (R) or (S)-1-cyclopropyl-4-fluoro-N′-((1′,5′,6′,7′-tetrahydro-2′H-spiro[cyclopropan-1,3′-dicyclopenta[b,e]pyridin]-8′-yl)carbamoyl)-1H-pyrazole-3-sulfonimidamide], the IC50 under setting [2] lay within 40 to 200 nM.

In the case of `CCn1cc(F)c(S(N)(=O)=NC(=O)Nc2c(C)c(C(F)(F)F)nc3c2CC(C)C3)n1` (single isomer, unassigned) [Compound 1101e, (R, S) or (R, R)-N′-((3,6-dimethyl-2-(trifluoromethyl)-6,7-dihydro-5H-cyclopenta[b]pyridin-4-yl)carbamoyl)-1-ethyl-4-fluoro-1H-pyrazole-3-sulfonimidamide], for the setting “read-out: hTHP-1 IC50 in 10% FBS, hTHP-1 assay containing 10% fetal bovine serum, Table B5, listed as 825”, the IC50 fell in the range of 8 to 40 nM.

On to `C[C@@H]1CCc2c1nc1c(c2NC(=O)N=S(N)(=O)c2nn(C3CC3)cc2F)CCC1` (single isomer, unassigned) [Example 867, (R) or (S)-1-cyclopropyl-4-fluoro-N′-(((R)-3-methyl-1,2,3,5,6,7-hexahydrodicyclopenta[b,e]pyridin-8-yl)carbamoyl)-1H-pyrazole-3-sulfonimidamide], for which the IC50 (read-out: hTHP-1 IC50 in 10% FBS, hTHP-1 assay containing 10% fetal bovine serum, Table B6) is less than 8 nM.

For the compound `NS(=O)(=NC(=O)Nc1c2c(nc3c1CCC31CC1)CCC2)c1nn(C2CC2)cc1F` (stereo not shown) [Example 857, 1-Cyclopropyl-4-fluoro-N′-((1′,5′,6′,7′-tetrahydro-2′H-spiro[cyclopropane-1,3′-dicyclopenta[b,e]pyridin]-8′-yl)carbamoyl)-1H-pyrazole-3-sulfonimidamide], under setting [2], the half-maximal inhibitory concentration (IC50) was 40 to 200 nM.

In the case of `Cc1c(C(F)(F)F)nc2c(c1NC(=O)N=S(N)(=O)c1scc(C(C)(C)O)c1F)CCC2` (single isomer, unassigned) [Compound 1108a, (R) or (S)-3-fluoro-4-(2-hydroxypropan-2-yl)-N′-((3-methyl-2-(trifluoromethyl)-6,7-dihydro-5H-cyclopenta[b]pyridin-4-yl)carbamoyl)thiophene-2-sulfonimidamide], for the setting “read-out: hTHP-1 IC50 in 10% FBS, hTHP-1 assay containing 10% fetal bovine serum, Table B5, listed as 840”, the IC50 fell in the range of 40 to 200 nM.

With `C[C@@H]1CCc2c1nc1c(c2NC(=O)N=S(N)(=O)c2nn(C(C)(F)F)cc2F)CCC1` (single isomer, unassigned) [Compound 1117b, (S) or (R)-1-(1,1-difluoroethyl)-4-fluoro-N′-(((R)-3-methyl-1,2,3,5,6,7-hexahydrodicyclopenta[b,e]pyridin-8-yl)carbamoyl)-1H-pyrazole-3-sulfonimidamide], the IC50 (read-out: hTHP-1 IC50 in 10% FBS, hTHP-1 assay containing 10% fetal bovine serum, Table B5, listed as 851) was in the range of 200 to 1000 nM.

For the compound `C[C@@H]1CCc2c1nc1c(c2NC(=O)N=S(N)(=O)c2nn(C(C)(F)F)cc2F)CCC1` (single isomer, unassigned) [Compound 1117a, (R) or (S)-1-(1,1-difluoroethyl)-4-fluoro-N′-(((R)-3-methyl-1,2,3,5,6,7-hexahydrodicyclopenta[b,e]pyridin-8-yl)carbamoyl)-1H-pyrazole-3-sulfonimidamide], under “read-out: hTHP-1 IC50 in 10% FBS, hTHP-1 assay containing 10% fetal bovine serum, Table B5, listed as 850”, the IC50 fell in the range of 8 to 40 nM.

As for `Cc1c(C(F)(F)F)nc2c(c1NC(=O)N=S(N)(=O)c1nn(C3CC3)cc1F)CCC2` (stereo not shown) [Example 854, 1-Cyclopropyl-4-fluoro-N′-((3-methyl-2-(trifluoromethyl)-6,7-dihydro-5H-cyclopenta[b]pyridin-4-yl)carbamoyl)-1H-pyrazole-3-sulfonimidamide], the IC50 under setting [2] lay in the range of 40 to 200 nM.

Turning to `Cc1c(C(F)(F)F)ncc(-c2ccnc(C#N)c2)c1NC(=O)N=S(N)(=O)c1sc(C(C)(C)O)nc1CO` (stereo not shown) [Compound 812], the IC50 under setting [1] lay in the range of 40 to 200 nM.

Turning to `C[C@@H]1CCc2c1nc1c(c2NC(=O)N=S(N)(=O)c2scc(C(C)(C)O)c2F)CCC1` (single isomer, unassigned) [Compound 1109b, (S) or (R)-3-fluoro-4-(2-hydroxypropan-2-yl)-N′-(((R)-3-methyl-1,2,3,5,6,7-hexahydrodicyclopenta [b,e]pyridin-8-yl)-carbamoyl) thiophene-2-sulfonimidamide], the IC50 (read-out: hTHP-1 IC50 in 10% FBS, hTHP-1 assay containing 10% fetal bovine serum, Table B5, listed as 843) lay within 200 to 1000 nM.

Take `Cc1c(C(F)(F)F)nc2c(c1NC(=O)N=S(N)(=O)c1cnc(C(F)(F)F)s1)CCC2` (stereo not shown) [Compound 1118, N′-((3-methyl-2-(trifluoromethyl)-6,7-dihydro-5H-cyclopenta [b]pyridin-4-yl)carbamoyl)-2-(trifluoromethyl) thiazole-5-sulfonimidamide]: the IC50 under setting [1] lay in the range of 5000 to 30000 nM.

For `Cc1c(C(F)(F)F)nc2c(c1NC(=O)N=S(N)(=O)c1cnc(C(F)F)s1)CCC2` (stereo not shown) [Compound 1007, 2-(Difluoromethyl)-N′-((3-methyl-2-(trifluoromethyl)-6,7-dihydro-5H-cyclopenta[b]pyridin-4-yl)carbamoyl)thiazole-5-sulfonimidamide], the IC50 under setting [1] is 5000 to 30000 nM.

`Cc1nc2c(c(NC(=O)N=S(N)(=O)c3scc(C(C)(C)O)c3F)c1-c1ccccc1)CCC2` (single isomer, unassigned) [Compound 1110a, (S) or (R)-3-fluoro-4-(2-hydroxypropan-2-yl)-N′-((2-methyl-3-phenyl-6,7-dihydro-5H-cyclopenta[b]pyridin-4-yl)carbamoyl)thiophene-2-sulfonimidamide]: the IC50 (read-out: hTHP-1 IC50 in 10% FBS, hTHP-1 assay containing 10% fetal bovine serum, Table B5, listed as 844) was in the range of 200 to 1000 nM.

`Cc1c(C(F)(F)F)nc2c(c1NC(=O)N=S(N)(=O)c1cnc(C(F)F)s1)CCC2` (single isomer, unassigned) [Compound 1007a, (R) or (S)-2-(Difluoromethyl)-N′-((3-methyl-2-(trifluoromethyl)-6,7-dihydro-5H-cyclopenta[b]pyridin-4-yl)carbamoyl)thiazole-5-sulfonimidamide]: the IC50 (read-out: hTHP-1 IC50 in 10% FBS, hTHP-1 assay containing 10% fetal bovine serum, Table B5, listed as 829) fell in the range of 1000 to 5000 nM.
